From PMC2802518 (Biochemistry, 2009)
pIC50: −log10 of the molar value.

These compounds were tested against T1, tCD14-His6 (truncated CD14) (Homo sapiens, UniProt P08571).
T1 sequence (P08571 20-175 limits assumed): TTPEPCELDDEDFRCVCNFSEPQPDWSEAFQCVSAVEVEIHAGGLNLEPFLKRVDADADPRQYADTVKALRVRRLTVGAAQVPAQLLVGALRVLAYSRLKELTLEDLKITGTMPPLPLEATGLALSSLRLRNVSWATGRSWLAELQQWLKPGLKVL
Format: binding

SMILES	pIC50
CCCCCCCCCCCCCCO[C@H]1[C@@H](OC)O[C@H](C[N+](C)(C)C2CCCC2)[C@@H](O)[C@@H]1OCCCCCCCCCCCCCC [compound 1, methyl 6-deoxy-6-N-dimethyl-N-cyclopentylamonium-2,3-di-O-tetradecyl-α-D-glucopyranoside]	6.10
CCCCCCCCCCCCCCOc1ccc(C[N+](C)(C)C2CCCC2)cc1OCCCCCCCCCCCCCC [compound 3, N-(3,4-bis-tetradecyloxy-benzyl)-N-cyclopentyl-N,N-dimethylammonium]	6.40
CCCCCCCCCCCCCCO[C@H]1[C@@H](OC)O[C@H](CN)[C@@H](O)[C@@H]1OCCCCCCCCCCCCCC [compound 2, methyl 6-deoxy-6-amino-2,3-di-O-tetradecyl-α-D-glucopyranoside]	5.70
